row,SMILES,melting point [°C]
1,O=C(CCn1cnc2c(=O)[nH]cnc21)NC1CCSC1=O (stereo not given),228 to 230
2,CCCCCCCCCCCCCCCCOc1cccc(O)c1,58 to 59
3,O=Cc1ccc(OC2CCCC2)c(O)c1Br,107 to 109
4,CC(C)NC(=O)Oc1ccccc1,81 to 82
5,N#CC1CCCCn2cccc21 (stereo not given),70 to 72
6,Cc1nnc(NCCCN2CCN(C)CC2)c2cc3ccccn3c12,60
7,CCOC(=O)CC1(S(N)(=O)=O)c2ccccc2-c2ccccc21,167 to 170
8,CCCCCC(=O)OC(C)OC1=C(C(=O)Nc2ccccn2)N(C)S(=O)(=O)c2ccccc21 (stereo not given),62 to 65
9,COc1cc2c(c(C(N)=O)c1OC)CCNCC2c1ccccc1 (stereo not given),178 to 180
10,CCOCCc1c(N=[N+]=[N-])nc(NC(=O)NC)nc1-c1ccccc1,128 to 130
11,CCN1C(=O)C(C(=O)Nc2cccc(S(C)=O)c2)c2cc3c(cc21)CCO3 (stereo not given),180 to 185
12,O=C(O)c1c(F)ccc([N+](=O)[O-])c1C(F)(F)F,190
13,Cc1cc(Cl)nn2cnnc12,134 to 136
14,CC(C)(C)OC(=O)Nc1cc(N2CCOCC2)cc(C(F)(F)F)c1,146 to 148
15,CCN(CC)c1nc2ccccc2n2cnnc12,117 to 119
16,O=C(NC(CS)Cc1ccccc1)NC(CS)Cc1ccccc1 (stereo not given),136 to 138
17,CCN1C(=O)Cc2cc(OC(=O)CCl)ccc21,53 to 57
18,COc1cccc2cc(CNCCNC(=O)C(C)(C)C)oc12,81 to 82
19,O=C(Nc1ccc2c(c1)CCSC2)OCc1ccccc1,116 to 118
20,Ic1ccnc2c1CCCN2,117 to 118
21,O=C1NC(CO)(CO)CO1,107 to 108
22,CCCCCCCNC(=O)Nc1cccc(N(C)C)c1C(=O)NC1CCN(C(c2ccccc2)c2ccccc2)CC1,77
23,COC(=O)c1nccnc1Cl,30

# Other lines, results leading:
row,melting point [°C],SMILES
1,114 to 115,Cc1ccc(C(=O)CCc2ccc(N3CCN(c4ccncc4)CC3)cc2)cc1
2,101 to 103,CCCC(=O)c1cnc2c(OCCCN3CCCC3)cccc2c1Nc1ccccc1C
3,64,Cc1c(CCCCCCCCC(=O)O)cccc1C(=O)c1ccc(Cl)cc1
4,239 to 241,CC1CC(=Cc2ccccc2)c2nc3cc(N)ccc3c(=O)n21 (stereo not given)
5,149 to 150,c1ccc(C(OC2CCN(CCOc3ccc4nncn4n3)CC2)c2ccccc2)cc1
6,108 to 115,Nc1ncc(Cc2cccc(-c3ccccc3)c2)c(N)n1
7,231,CS(=O)(=O)c1cccc(-c2cn(-c3nc(-c4ccc(C(F)(F)F)cc4)cc(C(F)(F)F)n3)cn2)c1
8,85 to 87,COP(=O)(O)CNc1cc(Cl)c(Oc2ccc(O)c3ccccc23)c(Cl)c1
9,106 to 108,CC(=O)CCc1ccc(C(=O)Nc2ccc3cc(CN4CCCC4)cnc3c2C)cc1
10,155,"CN1C(=O)CCC2(C)c3ccc(-c4ccccc4)cc3CCC12 (single isomer, unassigned; (+))"
11,189,O=C(Nc1ccc(S(=O)(=O)N2CCC(CNC[C@H](O)COc3ccc(O)cc3)CC2)cc1)Nc1ccccn1
12,159,CN1C(=O)CC[C@]2(C)c3ccc(-c4cccc5ccccc45)cc3CC[C@@H]12
13,165 to 167,Cc1nc(C(F)(F)F)ccc1C(=O)C1=C(S(=O)(=O)c2ccccc2)CCCC1=O
14,210 to 211,O=C(O)c1cc(-n2c(-c3ccc(Cl)c(Cl)c3)cc3c2CCCC3)ccc1O
15,174 to 176,O=[N+]([O-])c1cccc(CN2CCC(c3cc(-c4ccc(Cl)cc4)[nH]n3)CC2)c1
16,186 to 187,CCOc1ccc(C2=NN(c3ccc(C(=O)N4CCS(=O)(=O)CC4)cc3)C(=O)[C@H]3CC=CC[C@@H]23)cc1OCC (relative stereo)
17,222 to 223,Cc1ncc(C#N)c(Nc2ccc3[nH]ccc3c2C)c1I

# Reference: a melting point compilation (Tetko et al.; mined from patent text by program, amines drawn as free bases though some values may be those of a salt)
